According to publication PMC4850295, “Using a Genetically Encoded Sensor to Identify Inhibitors of Toxoplasma gondii Ca^2+ Signaling” (The Journal of Biological Chemistry, 2016):

The compounds below were run on T1, GCaMP5-expressing T. gondii. Conditions: 100 uM zaprinast stimulation; 10 min pretreatment; mean of two replicates; 0.23 h.
T1 construct: whole extracellular parasites expressing GCaMP5 Ca2+ sensor
Design: species or system GCaMP5-expressing Toxoplasma gondii, extracellular; GCaMP5 fluorescence (cytosolic Ca2+) after 100 uM zaprinast in compound-pretreated extracellular parasites, background-subtracted, relative to zaprinast alone
Outline: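 Extracellular GCaMP5-expressing parasites in Ringer's solution were pretreated with compounds (single 10 μM dose, two biological replicates) for 10 min, then stimulated with 100 μM zaprinast at 37 °C for 4 min. Fluorescence read at 485/525 nm, basal subtracted, expressed as fold change relative to zaprinast-only parasites.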
With `CNC(=O)c1ccccc1Nc1nc(Nc2cccc(CS(C)(=O)=O)c2)ncc1C` [GSK1520489A] the “fold change in fluorescence relative to zaprinast alone” value was 1.293.
`NS(=O)(=O)c1cccc(-c2ccc3ncc(N4CCOCC4)nc3c2)c1` [GSK1535721A] was tested, and the “fold change in fluorescence relative to zaprinast alone” value was 1.22.
In the case of `COc1ccc(Nc2ncc(C#N)c(Nc3ccccc3C(N)=O)n2)cc1N1CCN(C)CC1` [GSK1558669A], the “fold change in fluorescence relative to zaprinast alone” value is reported as 1.412.
With `CNC(=O)c1ccccc1Nc1nc(Nc2ccc(N3CCOCC3)cc2)ncc1Cl` [GSK1576028A] the “fold change in fluorescence relative to zaprinast alone” value was 1.198.
`NC[C@H](CC1CCCCC1)NC(=O)c1cc(Br)c(-c2ccnc3[nH]ccc23)s1` [GSK1581427A] was tested, and the “fold change in fluorescence relative to zaprinast alone” value was 1.128.
`NC[C@H](CC1CCCCC1)NC(=O)c1ccc(-c2ccnc3[nH]ccc23)s1` [GSK1581428A] was tested, and the “fold change in fluorescence relative to zaprinast alone” value was 1.197.
With `Nc1ncc(-c2ccc3nccc(-c4ccncc4)c3c2)cc1S(=O)(=O)N1CCOCC1` [GSK1627798A] the “fold change in fluorescence relative to zaprinast alone” value was 1.041.
`CC(=O)N1CCN(c2ccc(Nc3nccc(-c4sc(C(C)C)nc4-c4cccc(NS(=O)(=O)c5ccccc5)c4)n3)cn2)CC1` [GSK1645872A] was tested, and the “fold change in fluorescence relative to zaprinast alone” value was 0.8017.
For `CC(C)c1nc(-c2cccc(NS(=O)(=O)c3ccccc3)c2)c(-c2ccnc(Nc3ccc4c(c3)CN(C)CC4)n2)s1` [GSK1649598A], the “fold change in fluorescence relative to zaprinast alone” value was 0.9359.
With `Cc1cc(N2CCC(NS(=O)(=O)c3ccc(F)cc3)CC2)nc(Nc2cccc(C#N)c2)n1` [GSK1653537A] the “fold change in fluorescence relative to zaprinast alone” value was 0.8395.
With `COc1ccc(S(=O)(=O)NC2CCN(c3cc(C)nc(Nc4cccc(C#N)c4)n3)CC2)cc1` [GSK1653539A] the “fold change in fluorescence relative to zaprinast alone” value was 0.8764.
In the case of `CC(=O)N1CCN(c2ccc(Nc3nccc(-c4sc(C(C)C)nc4-c4cccc(NS(=O)(=O)c5cccc(Cl)c5)c4)n3)cn2)CC1` [GSK1660437A], the “fold change in fluorescence relative to zaprinast alone” value is reported as 1.275.
With `Cc1occc1-c1nc(N)c(OC[C@@H](N)Cc2c[nH]c3ccccc23)cc1-c1cc2c(C)[nH]nc2cn1` [GSK1660450B] the “fold change in fluorescence relative to zaprinast alone” value was 1.179.
In the case of `Cc1cc(N2Cc3ccccc3C2)nc(Nc2ccc(S(=O)(=O)N3CCOCC3)cc2)n1` [GSK1669917A], the “fold change in fluorescence relative to zaprinast alone” value is reported as 1.107.
For `CN(C)S(=O)(=O)c1cc(-c2ccc3nccc(-c4cccc(S(N)(=O)=O)c4)c3c2)cnc1N` [GSK1669921A], the “fold change in fluorescence relative to zaprinast alone” value was 1.101.
With `Nc1ncc(-c2ccc3nccc(-c4ccncc4)c3c2)cc1S(=O)(=O)N1CCCCC1` [GSK1693850A] the “fold change in fluorescence relative to zaprinast alone” value was 0.1427.
For `CCCN1CCC(Oc2cc(Nc3nc(Nc4cccc(F)c4C(N)=O)c4cc[nH]c4n3)c(OC)cc2Cl)CC1` [GSK1713088A], the “fold change in fluorescence relative to zaprinast alone” value was 1.364.
With `CC(C)c1nc(-c2cccc(NS(=O)(=O)c3c(F)cccc3F)c2)c(-c2ccnc(Nc3ccc(N4CCOCC4)nc3)n2)s1` [GSK1723980B] the “fold change in fluorescence relative to zaprinast alone” value was 0.6316.
In the case of `CC(C)c1nc(-c2ccc(F)c(NS(=O)(=O)c3c(F)cccc3F)c2)c(-c2ccnc(Nc3ccc(N4CCOCC4)nc3)n2)s1` [GSK1804250A], the “fold change in fluorescence relative to zaprinast alone” value is reported as 1.361.
In the case of `COc1cc(N2CCN(C(C)C)CC2)ccc1Nc1nc(Nc2cccc(F)c2C(=O)O)c2cc[nH]c2n1` [GSK1819799A], the “fold change in fluorescence relative to zaprinast alone” value is reported as 1.115.
With `Cc1ccc(NC(=O)c2cccc(N3CCCCC3)c2)cc1-c1ccc(C(=O)NCC2CC2)cc1` [GSK1917008A] the “fold change in fluorescence relative to zaprinast alone” value was 1.193.
For `CC(C)c1nc(-c2cccc(NS(=O)(=O)c3c(F)cccc3F)c2F)c(-c2ccnc(Nc3ccc(N4CCOCC4)nc3)n2)s1` [GSK2008607A], the “fold change in fluorescence relative to zaprinast alone” value was 1.572.
For `COc1cc2c(cc1Nc1nc(Nc3ccsc3C(N)=O)c3cc[nH]c3n1)N(C(=O)CN(C)C)CCC2` [GSK2110236A], the “fold change in fluorescence relative to zaprinast alone” value was 1.302.
In the case of `N#Cc1ccc(CCNc2nccc(-c3cccc(CN4CCNCC4)c3)n2)cc1` [GSK2137462A], the “fold change in fluorescence relative to zaprinast alone” value is reported as 0.3754.
`COc1cc2c(cc1Nc1nc(Nc3ccsc3C(N)=O)c3cc[nH]c3n1)N(C(=O)CN(C)C)CCC2(C)C` [GSK2163632A] was tested, and the “fold change in fluorescence relative to zaprinast alone” value was 1.131.
With `O=c1[nH]ccc2nc(N[C@@H]3CCCNC3)nc(Nc3ccc(S(=O)(=O)N4CCOCC4)cc3)c12` [GSK2177277A] the “fold change in fluorescence relative to zaprinast alone” value was 1.049.
For `O=c1[nH]ccc2nc(N[C@@H]3CCNC3)nc(Nc3ccc4c(c3)S(=O)(=O)CC4)c12` [GSK2181306A], the “fold change in fluorescence relative to zaprinast alone” value was 1.236.
In the case of `COc1cc2c(cc1Nc1nc(N3CCc4ccccc43)c3cc[nH]c3n1)N(C(=O)CN(C)C)CC2` [GSK2186269A], the “fold change in fluorescence relative to zaprinast alone” value is reported as 1.113.
For `O=c1[nH]ccc2nc(N[C@@H]3CCNC3)nc(Nc3cc(Cl)cc(Cl)c3)c12` [GSK2188764A (Enh2)], the “fold change in fluorescence relative to zaprinast alone” value was 2.366.
In the case of `Nc1n[nH]c2cc(-c3ccccn3)ccc12` [GSK2189892A], the “fold change in fluorescence relative to zaprinast alone” value is reported as 1.03.
In the case of `Nc1cccc(-c2ccc3c(N)n[nH]c3c2)n1` [GSK2192730A], the “fold change in fluorescence relative to zaprinast alone” value is reported as 1.059.
For `Nc1cccc(-c2ccc3c(N)n[nH]c3c2)c1` [GSK2193613A], the “fold change in fluorescence relative to zaprinast alone” value was 0.7898.
In the case of `Cc1cccc(Nc2nc(N[C@H]3CCNC3)ncc2C(N)=O)c1` [GSK2197149A], the “fold change in fluorescence relative to zaprinast alone” value is reported as 1.037.
For `CNc1nccc(-c2ccc3c(N)n[nH]c3c2)n1` [GSK2206003A], the “fold change in fluorescence relative to zaprinast alone” value was 1.243.
With `COc1cc(C)c(NC(=O)CN(C)C)cc1Nc1nc(Nc2cccc(F)c2C(N)=O)c2cc[nH]c2n1` [GSK2213727A] the “fold change in fluorescence relative to zaprinast alone” value was 1.59.
`CN(C)c1cc(-c2ccc3c(N)n[nH]c3c2)nc(N)n1` [GSK2219329A] was tested, and the “fold change in fluorescence relative to zaprinast alone” value was 0.9361.
For `CNC(=O)c1ncccc1Nc1nc(Nc2cc3c(cc2OC)CCCN3C(=O)CN(C)C)nc2[nH]ccc12` [GSK2220400A], the “fold change in fluorescence relative to zaprinast alone” value was 1.127.
With `CC(C)Nc1cc(-c2ccc3c(N)n[nH]c3c2)nc(N)n1` [GSK2221681A] the “fold change in fluorescence relative to zaprinast alone” value was 1.173.
`Nc1nc(Nc2ccccc2)cc(-c2ccc3c(N)n[nH]c3c2)n1` [GSK2225749A] was tested, and the “fold change in fluorescence relative to zaprinast alone” value was 1.117.
For `Nc1nc(-c2ccc3c(N)n[nH]c3c2)cc(N2CCCC2)n1` [GSK2227430A], the “fold change in fluorescence relative to zaprinast alone” value was 1.158.
`Nc1nc(-c2ccc3c(N)n[nH]c3c2)cc(N2CCCCC2)n1` [GSK2228768A] was tested, and the “fold change in fluorescence relative to zaprinast alone” value was 0.9677.
With `O=c1[nH]cc(-c2ccc(N3CCOCC3)cc2)c2sc(-c3cn[nH]c3)cc12` [GSK2276055A] the “fold change in fluorescence relative to zaprinast alone” value was 0.8496.
With `C[C@@H]1CC[C@@H](C(=O)Nc2ccccc2)CN1c1cc(-c2ccc3c(N)n[nH]c3c2)nc(N)n1` [GSK2286062A] the “fold change in fluorescence relative to zaprinast alone” value was 0.9223.
`Nc1nc(-c2ccc3c(N)n[nH]c3c2)cc(N2CCCC(NC(=O)c3ccccc3)C2)n1` (stereo not shown) [GSK2286775B] was tested, and the “fold change in fluorescence relative to zaprinast alone” value was 1.202.
For `C[C@@H]1CC[C@H](C(=O)NC2CCCCC2)CN1c1cc(-c2ccc3c(N)n[nH]c3c2)nc(N)n1` [GSK2291363A], the “fold change in fluorescence relative to zaprinast alone” value was 1.384.
For `O=c1cc(N2CCOCC2)nc2n(Cc3cccc(C(F)(F)F)c3)ccn12` [GSK2297543A], the “fold change in fluorescence relative to zaprinast alone” value was 0.8956.
In the case of `O=c1cc(N2CCOCC2)nc2n(Cc3cccc(Cl)c3Cl)c3ccccc3n12` [GSK2299009A], the “fold change in fluorescence relative to zaprinast alone” value is reported as 1.093.
For `Cc1c(Cn2c3ccccc3n3c(=O)cc(N4CCOCC4)nc23)cccc1C(F)(F)F` [GSK2306394A], the “fold change in fluorescence relative to zaprinast alone” value was 0.7248.
With `Cc1nn2c(=O)cc(N3CCOC(C)C3)nc2n1Cc1cccc(Cl)c1Cl` (stereo not shown) [GSK2373693A] the “fold change in fluorescence relative to zaprinast alone” value was 0.7316.
With `CNc1nc(-c2ccc3c(N)n[nH]c3c2)cc(N2C[C@@H](C(=O)NC3CCCCC3)OC[C@H]2C)n1` [GSK2375584A] the “fold change in fluorescence relative to zaprinast alone” value was 1.379.
`Nc1nccc2scc(-c3ccc4c(c3)CCN4C(=O)Cc3ccccc3)c12` [GSK2576924A] was tested, and the “fold change in fluorescence relative to zaprinast alone” value was 0.9278.
With `Nc1nccc2scc(-c3ccc4c(c3)CCN4C(=O)Cc3cc(F)ccc3F)c12` [GSK2587663A] the “fold change in fluorescence relative to zaprinast alone” value was 0.7245.
With `Nc1ncc(-c2ccncc2)c2scc(-c3ccc4c(c3)CCN4C(=O)Cc3ccccc3)c12` [GSK2592465A] the “fold change in fluorescence relative to zaprinast alone” value was 1.243.
With `Nc1ncc(-c2cn[nH]c2)c2scc(-c3ccc4c(c3)CCN4C(=O)Cc3ccccc3)c12` [GSK2593067A] the “fold change in fluorescence relative to zaprinast alone” value was 1.414.
With `Cn1cc(-c2cnc(N)c3c(-c4ccc5c(c4)CCN5C(=O)Cc4ccccc4)csc23)cn1` [GSK2593074A] the “fold change in fluorescence relative to zaprinast alone” value was 1.463.
For `Cc1ccccc1CC(=O)N1CCc2cc(-c3cn(C)c4ncnc(N)c34)ccc21` [GSK2603346A], the “fold change in fluorescence relative to zaprinast alone” value was 1.278.
In the case of `Cn1cc(-c2ccc3c(c2)CCN3C(=O)Cc2cccc(F)c2)c2c(N)ncnc21` [GSK2603358A], the “fold change in fluorescence relative to zaprinast alone” value is reported as 1.56.
For `Cn1cc(-c2ccc3c(c2)CCN3C(=O)Cc2cccc(Cl)c2)c2c(N)ncnc21` [GSK2606590A], the “fold change in fluorescence relative to zaprinast alone” value was 1.488.
For `Cn1cc(-c2ccc3c(c2)CCN3C(=O)Cc2ccccc2Cl)c2c(N)ncnc21` [GSK2608885A], the “fold change in fluorescence relative to zaprinast alone” value was 1.437.
In the case of `COc1cccc(CC(=O)N2CCc3cc(-c4cn(C)c5ncnc(N)c45)ccc32)c1` [GSK2608899A], the “fold change in fluorescence relative to zaprinast alone” value is reported as 0.9364.
With `Cc1ccc(CC(=O)N2CCc3cc(-c4cn(C)c5ncnc(N)c45)ccc32)cc1` [GSK2634758A] the “fold change in fluorescence relative to zaprinast alone” value was 1.068.
With `Nc1ncnc2occ(-c3ccc4c(c3)CCN4C(=O)Cc3cc(F)ccc3F)c12` [GSK2645446A] the “fold change in fluorescence relative to zaprinast alone” value was 0.8883.
In the case of `c1ccc(Cn2cnc3cc(Nc4ncnc5ccccc45)ccc32)cc1` [GW272142A], the “fold change in fluorescence relative to zaprinast alone” value is reported as 1.177.
In the case of `NS(=O)(=O)c1cccc(N/C=C2\C(=O)Nc3ccccc32)c1` [GW275616X], the “fold change in fluorescence relative to zaprinast alone” value is reported as 0.9797.
